Converted amounts (≈) assume the structure as drawn. Read-outs that look alike come from different tables or passages of the source.
How the values were obtained:
Candida albicans = assay: microbe, parasite or virus in culture
[1] = as described in British patent specification Nos. 1,078,049 and 932,875; cited from earlier work

SMILES	MIC (Candida albicans) [µg/mL]	antimitotic activity [1]	VSV CYT (CV-1 cells; 0.2 ug/well) [LS]	VSV CYT (CV-1 cells; 2 ug/well) [LS]	VSV CYT (CV-1 cells; 20 ug/well) [LS]
C=C1CC(OC)(C(O)C(=O)NC2OCOC3C2OC(CC(O)CCC/C=C/C=C/C=C/C(=O)NC(CCCNc2nc(C)cc(C)n2)C(=O)O)C(C)(C)C3OC)OC(C)C1C (stereo not shown) [Pyrimidine derivative (3)]	50 (≈ 58.3 µM)				
C=C1CC(OC)(C(O)C(=O)NC(OC)C2CC(O)C(C)(C)C(CC(COC)OC)O2)OC(C)C1C (stereo not shown) [Pederin]		antimitotic activity			
C=C1CC(OC)(C(O)C(=O)NC2OCOC3C2OC(CC(O)CCC/C=C/C=C/C=C/C(=O)NC(CCCNC(=N)N)C(=O)OC)C(C)(C)C3OC)OC(C)C1C (stereo not shown) [Methyl ester (2), Methyl ester of onnamide A]	5 (≈ 6.19 µM)				
C=C1CC(OC)(C(O)C(=O)NC2OCOC3C2OC(CC(O)CCC/C=C/C=C/C=C/C(=O)NC(CCCNC(=N)N)C(=O)O)C(C)(C)C3OC)OC(C)C1C (stereo not shown) [Onnamide A (1), onnamide A]	50 (≈ 63 µM)		0	0	0

Reference: US4801606A (priority 1987, dated 1989)
